In ChEMBL document CHEMBL1201862, “PubChem BioAssay data set” (2004):
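1) Cells in 96-well plates. 2) Compound, 48 h, 5 concentrations. 3) Linear interpolation between surrounding doses. 4) Unreached endpoint = highest concentration. GI50 marks 50% less growth.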 The source made the active and inactive calls. Rule as the data show it: active = GI50 up to about 1.1 µM and inactive = higher.

Experiments:
Assay in all cases: DTP human tumour cell line panel, 48 h
RXF 631 = system: RXF 631
LXFL 529 = system: LXFL 529
PC-3 = system: PC-3
BT-549 = system: BT-549
T47D = system: T47D
DU-145 = system: DU-145
Hs-578T = system: Hs-578T
MDA-N = system: MDA-N
786-0 = system: 786-0

| SMILES | GI50 (RXF 631) | GI50 (LXFL 529) | GI50 (PC-3) | GI50 (BT-549) | GI50 (T47D) | GI50 (DU-145) | GI50 (Hs-578T) | GI50 (MDA-N) | GI50 (786-0) |
| --- | --- | --- | --- | --- | --- | --- | --- | --- | --- |
| COc1ccc(N2C(=O)/C(=C(\C)c3cc4ccccc4oc3=O)N=C2c2cc([N+](=O)[O-])ccc2Cl)cc1 | 36.6 µM (inactive) | 29.9 µM (inactive) |  |  |  |  |  |  |  |
| CCOP(=O)(COCCn1ncc(=O)[nH]c1=O)OCC |  |  | > 100 µM (inactive) | > 100000 nM (inactive) | > 100 µM (inactive) | > 100 µM (inactive) | > 100 µM (inactive) | > 100 µM (inactive) |  |
| O=c1cnn(C/C=C/CBr)c(=O)[nH]1 |  |  | 14.9 µM (inactive) | 527 nM (active) | 19.1 µM (inactive) | 24.2 µM (inactive) | 33 µM (inactive) | 14.7 µM (inactive) |  |
| C/C(=N/NS(=O)(=O)c1c(C)cc(C)cc1C)c1cccc[n+]1[O-] |  | > 100 µM (inactive) |  |  |  |  |  |  | > 100 µM (inactive) |
| CN1COCN/C1=N/C#N | > 100 µM (inactive) | > 100 µM (inactive) |  |  |  |  |  |  |  |
| NCCCN(CCCN)CCN(CCN(CCCN)CCCN)CCN(CCCN)CCCN |  |  | > 100 µM (inactive) |  | 58.3 µM (inactive) | > 100 µM (inactive) | 23.5 µM (inactive) | > 100 µM (inactive) |  |
| Cc1ccc(C(=O)N2c3ccccc3N(C)n3cccc3C2CC(=O)O)cc1 (stereo not given) |  | > 100 µM (inactive) |  |  |  |  |  |  | > 100 µM (inactive) |
| C[C@]12CCC(=O)C(O)=C1CCC2=O |  | > 100 µM (inactive) |  |  |  |  |  |  | > 100 µM (inactive) |
| COc1ccccc1OCC(COC(=O)Nc1ccccc1)OC(=O)Nc1ccccc1 (stereo not given) |  | 27.5 µM (inactive) |  |  |  |  |  |  |  |
| C[C@]12CC/C(=N\O)C=C1CC[C@@H]1[C@@H]2CC[C@]2(C)C(=N/O)/C(=C/c3ccncc3)C[C@@H]12 |  |  | 14 µM (inactive) | 36100 nM (inactive) | 19.7 µM (inactive) | 31.6 µM (inactive) | 86.5 µM (inactive) | 21.7 µM (inactive) | 24.7 µM (inactive) |
| c1ccc(-n2cnnc2-c2nsc3ccccc23)cc1 |  | > 100 µM (inactive) |  |  |  |  |  |  |  |
| C/C=C1\C[C@@H]2C(OC)Nc3cc(O)c(OC)cc3C(=O)N2C1 (stereo not given in full) | 0.00859 µM (active) | 0.00301 µM (active) | < 0.01 µM (active) | 4.37 nM (active) | 0.0141 µM (active) | < 0.01 µM (active) | 0.0142 µM (active) | < 0.01 µM (active) |  |
| CC(=O)OC(C)c1cc2c(s1)C(=O)c1ccsc1C2=O (stereo not given) |  |  | 0.041 µM (active) | 167 nM (active) | 0.437 µM (active) | 0.118 µM (active) | 0.154 µM (active) | 0.0206 µM (active) | 0.286 µM (active) |
| C[C@H]1O[C@@H](O[C@H]2[C@@H](O)C[C@H](O[C@H]3[C@@H](O)C[C@H](O[C@H]4CC[C@@]5(C)[C@H](CC[C@@H]6[C@@H]5CC[C@]5(C)[C@@H](C7=CC(=O)OC7)CC[C@]65O)C4)O[C@@H]3C)O[C@@H]2C)C[C@H](O)[C@@H]1O [DIGITOXIN] |  |  | < 0.033 µM (active) | 18.9 nM (active) |  |  | < 0.0378 µM (active) | 0.0256 µM (active) |  |
